In patent US20250228851A1, “ALLOSTERIC INHIBITOR COMPOUNDS FOR OVERCOMING CANCER RESISTANCE” (priority 2021, published 2025):
Entries after “also recorded” stand apart in the source; their conditions may differ.

Experiments:
KÖ (Ph+T315I-BCR-ABL) = assay: Proliferation by dye exclusion after three days, KÖ; type: cell-based, human; conditions: KÖ, 2.5, 5 and 10 μM
Procedure: FIG. 3. […] Cells were exposed to increasing concentration of 2.5, 5 and 10 μM of Compound 16. The negative control cell lines Ph− ALL HP was irresponsive to increasing concentration of Compound 16 (up to 10 μM). […] All four cell lines were plated in duplicates at the indicated concentrations, and proliferation was assessed after three days by dye exclusion of viable cells. […] The sensitivity of Ph+ cells to Compound 16 underlines the involvement of BCR-ABL in the antiproliferative mechanism. Death induction of BV173 cells is well taken as an indication of the ability of such group of compounds to overcome resistance that is originated in non-mutational grounds. However, the ability overcome the resistant T315I-BCR-ABL mutant, as shown in the dose-dependent manner of KÖ (circles), might be indicative for a non-ATP competitive mechanism of action.

Jurkat = assay: XTT cell viability, Jurkat; type: cell-based, human; conditions: increasing concentration up to 10 μM
Procedure: • 1. Ba/F3 cells were obtained from the German Collection of Microorganisms and Cell Cultures (DSMZ, Braunschweig, Germany) and maintained in RPMI 1640 medium supplemented with 10% fetal calf serum (Invitrogen) containing 10 ng/ml of interleukin-3 (Cell Concepts, Umkirch, Germany). Ecotropic Phoenix cells and Rat-1 cells were cultured in Dulbecco's modified Eagle's medium supplemented with 10% fetal calf serum. GNF-2 (Sigma-Adrich, Steinheim, Germany) was dissolved in dimethyl sulfoxide and added at a final concentration of […]. Cell growth was assessed by dye exclusion using Trypan blue. Proliferation was assessed using the XTT proliferation kit (Roche, Mannheim, Germany), according to the manufacturer's instructions. • 2. Ba/F3: IL-3 dependent lymphatic murine pro B cell line. Ba/F3 cells expressing either p185-BCR-ABL1 (p185-BCR-ABL-Ba/F3) or p210-BCR-ABL (p210-BCR-ABL-Ba/F3). p185-BCR-ABL1 (activated kinases substitute for the IL-3 signaling and therefore render the cells IL3 independent. Ba/F3 cells expressing either p185-BCR-ABL (p185-Ba/F3) or p210-BCR-ABL (p210-Ba/F3). Ba/F3 cells obtained from the German Collection of Microorganisms and Cell Cultures (DSMZ, Braunschweig, Germany). • 3. Mutant transduced Ba/F3 cells (T315I-p185-BCR-ABL1 or T315I-p210-BCR-ABL1): Ba/F3 cells expressing either the mutated forms T315I-p185-BCR-ABL1 or T315I-p210-BCR-ABL1. • 4. WT-Sup-B15: A Ph+ ALL cell line harboring the p185-BCR-ABL. Sup-B15: established from the bone marrow of a child with acute lymphoblastic leukemia (B cell precursor ALL) in second relapse in 1984; described in the literature to carry the ALL-variant (m-BCR) of the BCR-ABL1 fusion gene (e1-a2) correct, because it results in the p185-BCR-ABL version. • 5. […]
FIG. 2: Effect of Compound 16 on leukemia cell lines (Jurkat, Sup-B15 and BV173). Cell viablility (CV) was determined following incubation of the 1 m cells/ml of each cell line with increasing concentration of the Compound 16 [empty vehicle (0.0 μM+IL3), 2.5, 5.0 and 10.0 μM]. CV was measured by the XTT method. […]

[1] = tested on: Ba/F3 cells expressing T315I-p185-BCR-ABL; assay: XTT cell viability / proliferation, Ba/F3 expressing T315I-p185-BCR-ABL; type: cell-based, murine
Procedure: • 1. Ba/F3 cells were obtained from the German Collection of Microorganisms and Cell Cultures (DSMZ, Braunschweig, Germany) and maintained in RPMI 1640 medium supplemented with 10% fetal calf serum (Invitrogen) containing 10 ng/ml of interleukin-3 (Cell Concepts, Umkirch, Germany). Ecotropic Phoenix cells and Rat-1 cells were cultured in Dulbecco's modified Eagle's medium supplemented with 10% fetal calf serum. GNF-2 (Sigma-Adrich, Steinheim, Germany) was dissolved in dimethyl sulfoxide and added at a final concentration of […]. Cell growth was assessed by dye exclusion using Trypan blue. Proliferation was assessed using the XTT proliferation kit (Roche, Mannheim, Germany), according to the manufacturer's instructions. • 2. Ba/F3: IL-3 dependent lymphatic murine pro B cell line. Ba/F3 cells expressing either p185-BCR-ABL1 (p185-BCR-ABL-Ba/F3) or p210-BCR-ABL (p210-BCR-ABL-Ba/F3). p185-BCR-ABL1 (activated kinases substitute for the IL-3 signaling and therefore render the cells IL3 independent. Ba/F3 cells expressing either p185-BCR-ABL (p185-Ba/F3) or p210-BCR-ABL (p210-Ba/F3). Ba/F3 cells obtained from the German Collection of Microorganisms and Cell Cultures (DSMZ, Braunschweig, Germany). • 3. Mutant transduced Ba/F3 cells (T315I-p185-BCR-ABL1 or T315I-p210-BCR-ABL1): Ba/F3 cells expressing either the mutated forms T315I-p185-BCR-ABL1 or T315I-p210-BCR-ABL1. • 4. WT-Sup-B15: A Ph+ ALL cell line harboring the p185-BCR-ABL. Sup-B15: established from the bone marrow of a child with acute lymphoblastic leukemia (B cell precursor ALL) in second relapse in 1984; described in the literature to carry the ALL-variant (m-BCR) of the BCR-ABL1 fusion gene (e1-a2) correct, because it results in the p185-BCR-ABL version. • 5. […] V617FJAK2 HEL: (Human erythroleukemia) is a growth factor independent erythroleukemic cell line established from the bone marrow of a patient with relapsed Hodgkin disease after autologous bone marrow transplantation (Martin P & Papayannopoulou T: Science 1982; 216:1233-1235). HEL cells display a block in differentiation at the level of common erythroid-megakaryocytic progenitor and have been commonly used as a model to study erythroid and megakaryocytic differentiation. • 7. Jurkat: an immortalized human T lymphocyte first derived from the peripheral blood of a child suffering from T cell leukemia. Jurkat cells are used to study acute T cell leukemia, T cell signaling, and the expression of various chemokine receptors susceptible to viral entry, particularly HIV.
FIGS. 1A and 1B: Effects of Compound 16 on Ba/F3 cells expressing either p185-BCR-ABL or T315I-p185-BCR-ABL. Cells were exposed to increasing concentration of Compound 16 [empty vehicle (0.0 μM+IL3), 2.5, 5.0 and 10.0 μM]. […] Cell viability (CV) was assessed using the XTT method as described in the experimental part. The means±SD of triplicates from one representative experiment out of three performed are given.
FIGS. 7A-C: Effects of Compound 16 on of Ba/F3 cells expressing WT-p185-BCR-ABL (FIG. 7A) and the mutant gatekeeper T315I-p185-BCR-ABL (FIG. 7B) by Compound 16. Cells were exposed to increasing concentrations of Compound 16.

With `COc1ccc(C(=O)N2CCN(c3cc(Nc4ccc(OC(F)(F)F)cc4)ncn3)CC2)cc1OC` [Compound 16] the “response (in words)” value (KÖ (Ph+T315I-BCR-ABL)) was “inhibited with variable degrees”, the “antiproliferative response (in words)” value (Jurkat) was “highly insensitive; also recorded: irresponsive” and the “RF (T315I-p185 versus p185-Ba/F3)” value ([1]; 1 μM, 48 hr) was 1.07. The cells inhibited ([1]; 1 μM, within the first 24 hours) was “not affected”, the “resistance conferred by T315I mutant versus p185-Ba/F3” value ([1]; 2 μM, T=48 hr) was 1.84 fold and the viable cells ([1]; 2 μM, T=48 hr) was 50.71%. For the same compound, the “time to complete inhibition” value ([1]; 10 μM) was roughly 96 h and the cell proliferation affected ([1]; 5 and 10 μM) was roughly 80%.
